Measurements: ChEMBL document CHEMBL4483862, “Open-source discovery of chemical leads for next-generation chemoprotective antimalarials” (2018)

Test system: Plasmodium berghei
Experiment: Luciferase/luciferin-expressing antifolate-resistant parasites were used to infect a culture of HepG2 cells that were pre-incubated with compounds. Infected hepatocytes emit light due to the luciferase reaction. Assay results are presented as the percent inhibition of light emission compared to control. […]
Format: functional
Settings: sporozoite; for IC90: read-out: LUCIFERASE INFECTION ASSAY - IC90

| Structure (SMILES) | IC90 | further results |
| --- | --- | --- |
| C=CCNc1nc(-c2ccccc2)c(C(=O)OCC)cc1C#N | > 10.7 µM | IC50 (HEPG2TOX_HILL_SLOPE 2.72, HEPG2TOX_R_SQUARED 0.984, PBLUC_HILL_SLOPE 4, PBLUC_R_SQUARED 0.181, read-out: LUCIFERASE INFECTION ASSAY - IC50): 6.9 µM |
| CC(C)c1ccc(NC(=O)c2snc3ccc(Cl)cc23)cc1 | 6.63 µM | IC50 (HEPG2TOX_HILL_SLOPE 2.78, HEPG2TOX_R_SQUARED 0.915, PBLUC_HILL_SLOPE 3.55, PBLUC_R_SQUARED 0.653, read-out: LUCIFERASE INFECTION ASSAY - IC50): 3.57 µM |
| Cc1ccc(C(=O)NN(C)c2nc3ccccc3nc2C(F)(F)F)cc1 | 8.54 µM | IC50 (HEPG2TOX_HILL_SLOPE 2.8, HEPG2TOX_R_SQUARED 0.955, PBLUC_HILL_SLOPE 3.11, PBLUC_R_SQUARED 0.656, read-out: LUCIFERASE INFECTION ASSAY - IC50): 4.21 µM |
| O=C(CSc1nnc(-c2ccco2)o1)OCc1cc(F)cc2c1OC(c1ccccc1)OC2 (configuration not stated) | 4.11 µM | IC50 (HEPG2TOX_HILL_SLOPE 2.76, 2.27, HEPG2TOX_R_SQUARED 0.916, 0.957, PBLUC_HILL_SLOPE 6.02, 15.8, PBLUC_R_SQUARED 0.479, 0.425, read-out: LUCIFERASE INFECTION ASSAY - IC50): 3.17 µM |
| Fc1ccc(-c2cs/c(=N\CC3CCCO3)n2/N=C/c2ccccc2F)cc1 (configuration not stated) | > 10 µM | IC50 (HEPG2TOX_HILL_SLOPE 2.73, HEPG2TOX_R_SQUARED 0.938, PBLUC_HILL_SLOPE 4.49, 0.768, PBLUC_R_SQUARED 0.141, 0.452, read-out: LUCIFERASE INFECTION ASSAY - IC50): 5.54 µM |
| Brc1ccc(-c2ccc(CN3CCNCC3)s2)cc1 | > 10 µM | IC50 (HEPG2TOX_HILL_SLOPE 2.72, HEPG2TOX_R_SQUARED 0.0418, read-out: LUCIFERASE INFECTION ASSAY - IC50): > 10 µM |
| CC(C)c1ccc(/C=C/C(=O)NN=c2nc[nH]c3ccccc23)cc1 | > 10 µM | IC50 (HEPG2TOX_HILL_SLOPE 2.75, HEPG2TOX_R_SQUARED 0.845, PBLUC_HILL_SLOPE 8.02, PBLUC_R_SQUARED 0.305, read-out: LUCIFERASE INFECTION ASSAY - IC50): 8.64 µM |
| CC(=O)Nc1ccc(S(=O)(=O)N2CCCc3cc(C)ccc32)cc1 | > 10 µM | IC50 (HEPG2TOX_HILL_SLOPE 2.72, HEPG2TOX_R_SQUARED 0.907, PBLUC_HILL_SLOPE 2.8, PBLUC_R_SQUARED 0.127, read-out: LUCIFERASE INFECTION ASSAY - IC50): 5.79 µM |
| O=c1c2ccccc2nnn1CSc1nc2ccccc2c(=O)n1CCC1=CCCCC1 | 9.59 µM | IC50 (HEPG2TOX_HILL_SLOPE 2.76, HEPG2TOX_R_SQUARED 0.854, PBLUC_HILL_SLOPE 2.95, PBLUC_R_SQUARED 0.421, read-out: LUCIFERASE INFECTION ASSAY - IC50): 4.55 µM |
| CC(=O)O[C@H]1CC[C@]2(C)C3CC[C@]4(C)C(C5=CC(=O)OC5)CC[C@]4(O)C3CC[C@@H]2C1 (some centres not stated) | 1.14 µM | IC50 (HEPG2TOX_HILL_SLOPE 2.72, HEPG2TOX_R_SQUARED 0.979, PBLUC_HILL_SLOPE 2.85, PBLUC_R_SQUARED 0.935, read-out: LUCIFERASE INFECTION ASSAY - IC50): 0.528 µM |
| COc1ccc(-c2c(C)nn3c(=O)cc(CSc4ccc(C)cc4)[nH]c23)cc1 | 3.91 µM | IC50 (HEPG2TOX_HILL_SLOPE 2.74, HEPG2TOX_R_SQUARED 0.727, PBLUC_HILL_SLOPE 9.33, PBLUC_R_SQUARED 0.653, read-out: LUCIFERASE INFECTION ASSAY - IC50): 3.09 µM |
| O=C(Nc1c2ccccc2nc2ccccc12)c1[nH]nc2c1CCCC2 | 4.07 µM | IC50 (HEPG2TOX_HILL_SLOPE 2.71, HEPG2TOX_R_SQUARED 0.934, PBLUC_HILL_SLOPE 11.2, PBLUC_R_SQUARED 0.297, read-out: LUCIFERASE INFECTION ASSAY - IC50): 3.34 µM |
| CCc1nc2oc3ccccc3c(=O)c2c(=O)n1CCc1ccccc1 | > 9.53 µM | IC50 (HEPG2TOX_HILL_SLOPE 2.79, HEPG2TOX_R_SQUARED 0.325, PBLUC_HILL_SLOPE 2.85, PBLUC_R_SQUARED 0.319, read-out: LUCIFERASE INFECTION ASSAY - IC50): 4.63 µM |
| Cc1oc2c(c1C(=O)NC(C)(C)C)C(=O)c1ccccc1C2=O | 4.63 µM | IC50 (HEPG2TOX_HILL_SLOPE 2.79, HEPG2TOX_R_SQUARED 0.986, PBLUC_HILL_SLOPE 0.957, PBLUC_R_SQUARED 0.592, read-out: LUCIFERASE INFECTION ASSAY - IC50): 0.466 µM |
| O=C(NNC(=O)c1cc(-c2ccc(Cl)s2)nc2ccccc12)c1cnccn1 | 1.27 µM | IC50 (HEPG2TOX_HILL_SLOPE 2.73, HEPG2TOX_R_SQUARED 0.802, PBLUC_HILL_SLOPE 17.7, PBLUC_R_SQUARED 0.568, read-out: LUCIFERASE INFECTION ASSAY - IC50): 1.12 µM |
| COc1ccc(C2=NN=C/C2=N\Nc2ccc(C(F)(F)F)cc2)cc1 | 7.39 µM | IC50 (HEPG2TOX_HILL_SLOPE 2.77, HEPG2TOX_R_SQUARED 0.967, PBLUC_HILL_SLOPE 4.55, PBLUC_R_SQUARED 0.276, read-out: LUCIFERASE INFECTION ASSAY - IC50): 4.56 µM |

| Structure (SMILES) | IC90 | further results |
| --- | --- | --- |
| CC(=O)c1cccc(-c2cnc3ccc(-c4ccc(F)cc4)nn23)c1 | 4.45 µM | IC50 (HEPG2TOX_HILL_SLOPE 2.73, HEPG2TOX_R_SQUARED 0.88, PBLUC_HILL_SLOPE 3.37, PBLUC_R_SQUARED 0.558, read-out: LUCIFERASE INFECTION ASSAY - IC50): 2.32 µM |
| CC1=CC2(C)C3C(=O)N(c4ccc(OC(F)(F)F)cc4)C(=O)C3C1C1C(=O)N(c3ccc(OC(F)(F)F)cc3)C(=O)C12 (configuration not stated) | > 5.55 µM | IC50 (HEPG2TOX_HILL_SLOPE 2.78, HEPG2TOX_R_SQUARED 0.438, PBLUC_HILL_SLOPE 7.06, PBLUC_R_SQUARED 0.285, read-out: LUCIFERASE INFECTION ASSAY - IC50): 5.08 µM |
| Cc1ccc([N+](=O)[O-])cc1S(=O)(=O)Nc1ccccc1C(=O)OCC(=O)NCCC1=CCCCC1 | > 10 µM | IC50 (HEPG2TOX_HILL_SLOPE 2.79, HEPG2TOX_R_SQUARED 0.956, PBLUC_HILL_SLOPE 19.8, PBLUC_R_SQUARED 0.561, read-out: LUCIFERASE INFECTION ASSAY - IC50): 9.09 µM |
| COCc1[nH]n2c3cccc(=O)c-3nnc2c1-c1ccccc1 | 8.25 µM | IC50 (HEPG2TOX_HILL_SLOPE 2.72, HEPG2TOX_R_SQUARED 0.697, PBLUC_HILL_SLOPE 5.05, PBLUC_R_SQUARED 0.588, read-out: LUCIFERASE INFECTION ASSAY - IC50): 5.34 µM |
| Cc1ccc(COC(=O)c2cccc(S(=O)(=O)NCc3ccccc3)c2)cc1 | 4.92 µM | IC50 (HEPG2TOX_HILL_SLOPE 2.79, HEPG2TOX_R_SQUARED 0.991, PBLUC_HILL_SLOPE 8.82, PBLUC_R_SQUARED 0.278, read-out: LUCIFERASE INFECTION ASSAY - IC50): 3.84 µM |
| Fc1cccc(Nc2cc3c(cn2)ncn3Cc2ccccc2)c1 | > 10 µM | IC50 (HEPG2TOX_HILL_SLOPE 2.72, HEPG2TOX_R_SQUARED 0.764, PBLUC_HILL_SLOPE 2.07, PBLUC_R_SQUARED 0.581, read-out: LUCIFERASE INFECTION ASSAY - IC50): 8.26 µM |
| COc1ccc(NS(=O)(=O)c2cc(NC(=O)C3=NNC(=O)CC3)ccc2C)cc1 | > 10 µM | IC50 (HEPG2TOX_HILL_SLOPE 2.75, HEPG2TOX_R_SQUARED 0.923, PBLUC_HILL_SLOPE 2.64, PBLUC_R_SQUARED 0.0563, read-out: LUCIFERASE INFECTION ASSAY - IC50): 4.97 µM |
| O=C1OC(c2ccccc2)Cc2cc(C(=O)N3CCC(C(=O)Nc4ccccc4)CC3)ccc21 (configuration not stated) | > 10 µM | IC50 (HEPG2TOX_HILL_SLOPE 2.71, HEPG2TOX_R_SQUARED 0.817, PBLUC_HILL_SLOPE 3.44, PBLUC_R_SQUARED 0.218, read-out: LUCIFERASE INFECTION ASSAY - IC50): 6.51 µM |
| CNc1nc2cnc(Nc3cccc(C(F)(F)F)c3)cc2n1Cc1ccco1 | > 10 µM | IC50 (HEPG2TOX_HILL_SLOPE 2.71, HEPG2TOX_R_SQUARED 0.929, read-out: LUCIFERASE INFECTION ASSAY - IC50): > 10 µM |
| COc1cccc(Nc2nccc3[nH]c(-c4cccc(F)c4)cc23)c1 | 2.27 µM | IC50 (HEPG2TOX_HILL_SLOPE 2.76, HEPG2TOX_R_SQUARED 0.828, PBLUC_HILL_SLOPE 2.74, PBLUC_R_SQUARED 0.773, read-out: LUCIFERASE INFECTION ASSAY - IC50): 1.02 µM |
| Cc1cc(-c2ccccc2)[n+]2nc(N)c3ccccc3c2n1 | > 10 µM | IC50 (HEPG2TOX_HILL_SLOPE 2.74, HEPG2TOX_R_SQUARED 0.909, PBLUC_HILL_SLOPE 12.1, PBLUC_R_SQUARED 0.242, read-out: LUCIFERASE INFECTION ASSAY - IC50): 9.17 µM |
| CCOC(=O)c1cnn(-c2ccc(NC(=O)c3sc4nc5n(c(=O)c4c3C)CCC5)cc2)c1C | 2.97 µM | IC50 (HEPG2TOX_HILL_SLOPE 2.74, HEPG2TOX_R_SQUARED 0.98, PBLUC_HILL_SLOPE 1.74, PBLUC_R_SQUARED 0.848, read-out: LUCIFERASE INFECTION ASSAY - IC50): 0.838 µM |
| CCOc1ccc(OCC)c(S(=O)(=O)Oc2cccc3cccnc23)c1 | 7.66 µM | IC50 (HEPG2TOX_HILL_SLOPE 2.73, HEPG2TOX_R_SQUARED 0.737, PBLUC_HILL_SLOPE 3.92, PBLUC_R_SQUARED 0.473, read-out: LUCIFERASE INFECTION ASSAY - IC50): 4.37 µM |
| CS(=O)(=O)c1ccc(-c2ccc3ncc(-c4cccc(CO)c4)n3n2)cc1 | 3.89 µM | IC50 (HEPG2TOX_HILL_SLOPE 2.77, HEPG2TOX_R_SQUARED 0.883, PBLUC_HILL_SLOPE 15.3, PBLUC_R_SQUARED 0.0795, read-out: LUCIFERASE INFECTION ASSAY - IC50): 3.37 µM |
| CC(C)(C)c1ccc(-c2cc3[nH]c(-c4ccccc4)cc(=O)n3n2)cc1 | 3.76 µM | IC50 (HEPG2TOX_HILL_SLOPE 2.71, HEPG2TOX_R_SQUARED 0.618, PBLUC_HILL_SLOPE 3.36, PBLUC_R_SQUARED 0.487, read-out: LUCIFERASE INFECTION ASSAY - IC50): 1.95 µM |
